The supplement of paper PMC11616607

Tests used:
Test in all cases: drug sensitivity score (DSS) from 5-point dose-response viability curve (DSS (area-under-curve based score)); higher = more sensitive (stronger growth inhibition or killing); extreme values may be limits of the assay
Conditions in all cases: exposure time: 72 h; concentration range: 5 concentrations over 10,000-fold range
CAOV3 = tested on: CAOV3
Method in brief: (§1)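 Drugs in DMSO or water were acoustically dispensed (Echo 550) into 384-well plates at five concentrations across a 10,000-fold range. Ovarian cancer and normal ovarian cells (1,500 per well) were then added, incubated for 3 days at 37°C with 5% CO2, and read for viability by CellTiter-Glo luminescence on a PHERAstar FS. From these readings, Breeze software derived a drug sensitivity score per cell line and drug, with higher values meaning more sensitive and zero meaning no response.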

HOSE1C = tested on: HOSE1C
Method in brief: as §1

OV90 = tested on: OV90
Method in brief: as §1

Ovsaho = tested on: Ovsaho
Method in brief: as §1

COV362 = tested on: COV362
Method in brief: as §1

OVCAR8 = tested on: OVCAR8
Method in brief: as §1

HOSE2C = tested on: HOSE2C
Method in brief: as §1

Kuramochi = tested on: Kuramochi
Method in brief: as §1

COV318 = tested on: COV318
Method in brief: as §1

OVCAR5 = tested on: OVCAR5
Method in brief: as §1

JHOS2 = tested on: JHOS2
Method in brief: as §1

OVCAR4 = tested on: OVCAR4
Method in brief: as §1

Structure (SMILES)	drug sensitivity score (CAOV3)	drug sensitivity score (HOSE1C)	drug sensitivity score (OV90)	drug sensitivity score (Ovsaho)	drug sensitivity score (COV362)	drug sensitivity score (OVCAR8)	drug sensitivity score (HOSE2C)	drug sensitivity score (Kuramochi)	drug sensitivity score (COV318)	drug sensitivity score (OVCAR5)	drug sensitivity score (JHOS2)	drug sensitivity score (OVCAR4)
CC(C)(O)CC(=O)NCCn1ccc2ncnc(Nc3ccc(Oc4cccc(C(F)(F)F)c4)c(Cl)c3)c21 [TAK-285]	2.5	0	0	0.2	0.2	0.1	0	0.9	0	2	0	0
CCS(=O)(=O)c1cccc(-c2cc(C(=O)NC3CCN(C)CC3)c(C)c3[nH]c4ncc(C)cc4c23)c1 [TAK-901]	16.9	3.5	4.6	7.5	1.1	2.8	7.4	6.8	1.4	4.7	1.2	5.8
Cc1cccc(-c2[nH]c(CNc3ccccc3F)nc2-c2ccc3ncnn3c2)n1 [TEW-7197]	0	0	0	0	5	0.1	0.9	0	0	1.3	0	0
Nc1nc(N)c2nc(-c3cccc(O)c3)c(-c3cccc(O)c3)nc2n1 [TG100-115]	0.3	0	0	0	0.9	0	0	1.2	0	0.4	0	2.3
Cc1cc(C(C)Nc2ccccc2)c2nc(N3CCOCC3)cc(=O)n2c1 (stereo not given) [TGX-221]	0.8	0	0.2	7.8	0.3	1.2	0	7.9	0	2.1	0	1.7
Nc1nc(NC2CC2)cc(-c2cccc(Cl)c2Cl)n1 [TH588]	1.9	0	0	3.7	0.4	2.4	0	1.6	0.9	1.9	0	1.8
Clc1ccccc1C(c1ccccc1)(c1ccccc1)n1cccn1 [TRAM-34]	0	0	0	0	0	0	0	0	0	5	0	0
CC(=O)Nc1ccc(C(=O)Nc2ccccc2N)cc1 [Tacedinaline]	0	0.6	1.1	0	0	0	0.7	1.7	0	3.4	0	0.1
C=CC[C@@H]1/C=C(\C)C[C@H](C)C[C@H](OC)[C@H]2O[C@@](O)(C(=O)C(=O)N3CCCC[C@H]3C(=O)O[C@H](/C(C)=C/[C@@H]3CC[C@@H](O)[C@H](OC)C3)[C@H](C)[C@@H](O)CC1=O)[C@H](C)C[C@@H]2OC [Tacrolimus]	0.5	0.3	0	0.7	0.1	3.4	0	1	0	0.5	1.8	0.3
CN(C(=O)c1ccc(F)cc1C(F)(F)F)C1CCN(c2nnc(-c3ccnn3C)c3ccccc23)CC1 [Taladegib]	0	0	0	0	0	0	0	0	0.1	0.2	0	0
Cn1ncnc1[C@H]1c2n[nH]c(=O)c3cc(F)cc(c23)N[C@@H]1c1ccc(F)cc1 [Talazoparib]	4.1	10.1	5.1	4	0	5.7	8.7	4.3	3.1	3.2	3	1.9
C[C@@H]1CN(Cc2ccc(F)cc2)[C@@H](C)CN1C(=O)c1cc2c(C(=O)C(=O)N(C)C)cn(C)c2cc1Cl [Talmapimod]	0	0	0	0	0	0	0	0	0	0	0	0
COc1cc(Nc2ncc(F)c(Nc3ccc4c(n3)NC(=O)C(C)(C)O4)n2)cc(OC)c1OC [Tamatinib]	0	0	0	3.8	0	0	6.2	1.5	0.3	4.5	0	0
CC/C(=C(\c1ccccc1)c1ccc(OCCN(C)C)cc1)c1ccccc1 [Tamoxifen]	0.6	7.9	3.7	2.9	0.8	0.8	1.3	2.2	0.6	3.9	1	0.2
COc1cc2c(N3CCN(C(=O)Nc4ccc(OC(C)C)cc4)CC3)ncnc2cc1OCCCN1CCCCC1 [Tandutinib]	0	0	0	0	0	0	0	0	0	0	0	0
